{
  "source": "ChEMBL document CHEMBL3639321",
  "about": "“Triazolopyridine compounds as PIM kinase inhibitors” (2013)",
  "key": {"[1]": {"molecular_target": "Serine/threonine-protein kinase pim-3 (Rattus norvegicus, UniProt O70444)", "assay": "(§1) PIM-3 Enzyme Assay: The assay for the determination of PIM activity is based on the incorporation of [33P] ATP into PIM2tide substrate and capture of the radiolabeled peptide onto a Whatman P81 (phosphocellulose) filter plate. Assay mixtures contained 30 uM [gamma-33P] ATP (20 uCi/mL), 3.75 uM PIM2tide and 0.5 nM recombinant rat PIM-3 in place of PIM-1."}, "[2]": {"molecular_target": "Serine/threonine-protein kinase pim-2 (Homo sapiens, UniProt Q9P1W9)", "sequence (Q9P1W9 whole entry)": "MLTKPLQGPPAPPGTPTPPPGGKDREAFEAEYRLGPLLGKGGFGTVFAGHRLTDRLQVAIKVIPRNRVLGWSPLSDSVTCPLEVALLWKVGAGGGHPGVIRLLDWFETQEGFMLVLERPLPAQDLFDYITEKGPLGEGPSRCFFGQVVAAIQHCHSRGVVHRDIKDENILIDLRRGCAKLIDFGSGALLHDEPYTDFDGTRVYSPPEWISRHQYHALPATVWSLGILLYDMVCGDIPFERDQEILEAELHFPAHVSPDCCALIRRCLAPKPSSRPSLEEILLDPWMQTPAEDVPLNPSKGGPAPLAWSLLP", "assay": "as §1, with “PIM-2” for “PIM-3”, “4” for “30”, “1.0” for “3.75”, “[…] PIM-2” for “0.5 nM recombinant rat PIM-3”"}},
  "data": [
    {"smiles": "CC1(C)CC(Nc2cccc3ccc(-c4nnc5ccccn45)nc23)CC(C)(C)N1", "values": [
      {"measurement": "IC50", "setting": "[1]", "value": 448, "unit": "nM"},
      {"measurement": "IC50", "setting": "[2]", "value": "≥ 10000", "unit": "nM"}
    ]}
  ]
}
